According to US20240065988A1, “COMBINED USE OF KETAMINE AND RETIGABINE (EZOGABINE) FOR THE TREATMENT OF PSYCHIATRIC DISORDERS” (Yeda Research and Development Co. Ltd., priority 2021, published 2024):

Tested on: single cells from the ventral hippocampus (vHipp)
Experiment: Single-cell RNA sequencing (scRNA-seq) of the ventral hippocampus after ketamine treatment; differential expression per cell type
[1] = Microglia, ketamine 10 mg/kg i.p. vs saline
[2] = OPCs, ketamine 10 mg/kg i.p. vs saline
[3] = Oligodendrocytes, ketamine 10 mg/kg i.p.
[4] = Oligodendrocytes, ketamine 10 mg/kg i.p. vs saline
[5] = Vascular Cells, ketamine 10 mg/kg i.p. vs saline

## CNC1(c2ccccc2Cl)CCCCC1=O (racemic) [ketamine, (R,S)-ketamine]
Lsm8, Glut Neurons
  Mean-Ket: 1.062
  logFC: −0.125
Map1lc3b, Glut Neurons
  Change: Down
  Mean-Ket: 1.349
  logFC: −0.132
Map4, Glut Neurons
  Change: Down
  Mean-Ket: 2.794
  logFC: −0.101
Matr3, Glut Neurons
  Change: Down
  Mean-Ket: 1.685
  logFC: −0.160
Microglia, ketamine 10 mg/kg i.p.
  Eef1akmt3 Mean-Ket: 1.718
[1]
  Eef1akmt3 Change: Up
  Eef1akmt3 logFC: 0.394
Mmachc, Glut Neurons
  Change: Down
  Mean-Ket: 2.750
  logFC: −0.102
Mrpl48, Glut Neurons
  Change: Up
  Mean-Ket: 1.060
  logFC: 0.180
Mtg2, Glut Neurons
  Change: Down
  Mean-Ket: 2.635
  logFC: −0.091
Ndufc1, Glut Neurons
  Change: Down
  Mean-Ket: 1.039
  logFC: −0.150
Nedd4, Glut Neurons
  Change: Down
  Mean-Ket: 1.358
  logFC: −0.161
Nop58, Glut Neurons
  Change: Down
  Mean-Ket: 2.645
  logFC: −0.096
Nvl, Glut Neurons
  Change: Up
  Mean-Ket: 1.070
  logFC: 0.148
OPCs
  genes differentially expressed exclusively in one cell type: 3
OPCs, ketamine 10 mg/kg i.p.
  Akap5 Mean-Ket: 3.963
  Eef1akmt3 Mean-Ket: 1.870
  Ilf2 Mean-Ket: 1.310
  Lrrc17 Mean-Ket: 3.227
  Mfsd4a Mean-Ket: 0.916
  Saa3 Mean-Ket: 1.654
  Tmem181b-ps Mean-Ket: 0.055
  Tmem1311 Mean-Ket: 0.804
  Tmprss11a Mean-Ket: 0.015
[2]
  Akap5 Change: Down
  Akap5 logFC: −0.320
  Eef1akmt3 Change: Up
  Eef1akmt3 logFC: 0.527
  Ilf2 Change: Up
  Ilf2 logFC: 0.398
  Lrrc17 Change: Down
  Lrrc17 logFC: −0.286
  Mfsd4a Change: Up
  Mfsd4a logFC: 0.460
  Saa3 Change: Up
  Saa3 logFC: 0.404
  Tmem181b-ps Change: Down
  Tmem181b-ps logFC: −0.195
  Tmem1311 Change: Up
  Tmem1311 logFC: 0.585
  Tmprss11a Change: Down
  Tmprss11a logFC: −0.121
Oaz1, Glut Neurons
  Change: Down
  Mean-Ket: 1.200
  logFC: −0.205
[3]
  Akap5 Mean-Ket: 3.517
  Eef1akmt3 Mean-Ket: 2.089
  Gsn Mean-Ket: 1.005
  Ilf2 Mean-Ket: 1.493
  Jpt2 Mean-Ket: 1.507
  Lrrc17 Mean-Ket: 2.805
  Map3k20 Mean-Ket: 2.351
  Mfsd4a Mean-Ket: 1.058
  Mmachc Mean-Ket: 3.286
  Pias4 Mean-Ket: 1.649
  Ppp1r7 Mean-Ket: 1.026
  Psmb11 Mean-Ket: 1.161
  Saa3 Mean-Ket: 1.909
  Sec14l1 Mean-Ket: 1.281
  Slc10a7 Mean-Ket: 1.538
  Snhg11 Mean-Ket: 2.917
  Supt7l Mean-Ket: 2.509
  Them4 Mean-Ket: 1.517
  Tulp1 Mean-Ket: 1.893
  Upf3b Mean-Ket: 3.197
  Vps8 Mean-Ket: 1.703
  Xcr1 Mean-Ket: 1.078
  Zfp229 Mean-Ket: 1.093
  Zfp827 Mean-Ket: 1.284
[4]
  Akap5 Change: Down
  Akap5 logFC: −0.393
  Eef1akmt3 Change: Up
  Eef1akmt3 logFC: 0.601
  Gsn Change: Up
  Gsn logFC: 0.254
  Ilf2 Change: Up
  Ilf2 logFC: 0.463
  Jpt2 Change: Up
  Jpt2 logFC: 0.265
  Lrrc17 Change: Down
  Lrrc17 logFC: −0.365
  Map3k20 Change: Up
  Map3k20 logFC: 0.245
  Mfsd4a Change: Up
  Mfsd4a logFC: 0.642
  Mmachc Change: Up
  Mmachc logFC: 0.154
  Pias4 Change: Up
  Pias4 logFC: 0.209
  Ppp1r7 Change: Up
  Ppp1r7 logFC: 0.231
  Psmb11 Change: Up
  Psmb11 logFC: 0.191
  Saa3 Change: Up
  Saa3 logFC: 0.574
  Sec14l1 Change: Up
  Sec14l1 logFC: 0.238
  Slc10a7 Change: Up
  Slc10a7 logFC: 0.192
  Snhg11 Change: Up
  Snhg11 logFC: 0.164
  Supt7l Change: Up
  Supt7l logFC: 0.169
  Them4 Change: Up
  Them4 logFC: 0.233
  Tulp1 Change: Up
  Tulp1 logFC: 0.207
  Upf3b Change: Up
  Upf3b logFC: 0.166
  Vps8 Change: Down
  Vps8 logFC: −0.217
  Xcr1 Change: Up
  Xcr1 logFC: 0.197
  Zfp229 Change: Up
  Zfp229 logFC: 0.199
  Zfp827 Change: Up
  Zfp827 logFC: 0.208
P3h3, Glut Neurons
  Change: Down
  Mean-Ket: 2.278
  logFC: −0.111
Pan3, Astrocytes
  Change: Down
  Mean-Ket: 1.194
  logFC: −0.179
Pbld1, Glut Neurons
  Change: Down
  Mean-Ket: 3.387
  logFC: −0.106
Poldip2, Astrocytes
  Change: Down
  Mean-Ket: 1.255
  logFC: −0.142
Polr2c, Glut Neurons
  Change: Down
  Mean-Ket: 2.412
  logFC: −0.101
Ppan, Glut Neurons
  Change: Down
  Mean-Ket: 2.680
  logFC: −0.102
Ppp1r16b, Astrocytes
  Change: Down
  Mean-Ket: 2.539
  logFC: −0.227
Rhpn2, Glut Neurons
  Change: Down
  Mean-Ket: 1.601
  logFC: −0.114
Rpl6, Glut Neurons
  Change: Down
  Mean-Ket: 0.808
  logFC: −0.190
Rpl41, Glut Neurons
  Change: Down
  Mean-Ket: 2.239
  logFC: −0.192
Rps29, Glut Neurons
  Change: Down
  Mean-Ket: 0.978
  logFC: −0.136
Rtn1, Glut Neurons
  Change: Down
  Mean-Ket: 1.210
  logFC: −0.185
Saa3, Astrocytes
  Change: Up
  Mean-Ket: 1.697
  logFC: 0.254
Saa3, Glut Neurons
  Change: Up
  Mean-Ket: 1.494
  logFC: 0.193
Sec23b, Glut Neurons
  Change: Down
  Mean-Ket: 2.447
  logFC: −0.109
Sec23ip, Glut Neurons
  Change: Down
  Mean-Ket: 2.674
  logFC: −0.107
Slc23a1, Glut Neurons
  Change: Down
  Mean-Ket: 2.215
  logFC: −0.114
Slc25a4, Glut Neurons
  Change: Down
  Mean-Ket: 0.872
  logFC: −0.125
Snca, Glut Neurons
  Change: Down
  Mean-Ket: 0.835
  logFC: −0.147
Swt1, Glut Neurons
  Change: Down
  Mean-Ket: 2.617
  logFC: −0.085
Synb, Glut Neurons
  Change: Down
  Mean-Ket: 1.730
  logFC: −0.118
Syne1, Astrocytes
  Change: Up
  Mean-Ket: 1.068
  logFC: 0.128
Timeless, Glut Neurons
  Change: Down
  Mean-Ket: 2.582
  logFC: −0.106
Tmsb4x, Glut Neurons
  Change: Down
  Mean-Ket: 1.829
  logFC: −0.167
Tpd52, Astrocytes
  Change: Down
  Mean-Ket: 1.199
  logFC: −0.145
Trpc4ap, Glut Neurons
  Change: Down
  Mean-Ket: 1.729
  logFC: −0.115
Tuba1a, Astrocytes
  Change: Down
  Mean-Ket: 1.483
  logFC: −0.162
Ube2k, Glut Neurons
  Change: Down
  Mean-Ket: 2.844
  logFC: −0.099
Unc13d, Astrocytes
  Change: Down
  Mean-Ket: 1.469
  logFC: −0.146
Usp34, Glut Neurons
  Change: Down
  Mean-Ket: 2.142
  logFC: −0.099
Vascular Cells, ketamine 10 mg/kg i.p.
  Flna Mean-Ket: 2.309
[5]
  Flna Change: Up
  Flna logFC: 2.044
Washc4, Glut Neurons
  Change: Down
  Mean-Ket: 2.856
  logFC: −0.092
Wdr12, Glut Neurons
  Change: Down
  Mean-Ket: 2.770
  logFC: −0.102
Yae1d1, Glut Neurons
  Change: Down
  Mean-Ket: 1.738
  logFC: −0.143
Ythdc1, Astrocytes
  Change: Down
  Mean-Ket: 1.822
  logFC: −0.144
Zcchc4, Glut Neurons
  Change: Down
  Mean-Ket: 0.973
  logFC: −0.113
Zfp113, Glut Neurons
  Change: Down
  Mean-Ket: 2.767
  logFC: −0.090
Zfp369, Glut Neurons
  Change: Up
  Mean-Ket: 1.005
  logFC: 0.207
astrocytes
  genes differentially expressed exclusively in one cell type: 27
Endothelial cells
  genes differentially expressed exclusively in one cell type: 1
Glutamatergic neurons
  genes differentially expressed exclusively in one cell type: 135
Glutamatergic neurons, all DEGs
  DEGs in glutamatergic neurons: 165
In 7 of the 13 clusters, ketamine 10 mg/kg vs saline
  total differentially expressed genes (DEGs): 263
Ketamine 10 mg/kg BW i.p., 2 days post-injection
  relative cell type composition for each cluster, ketamine vs saline: no significant differences
mt-Atp6, Astrocytes
  Change: Up
  Mean-Ket: 2.236
  logFC: 0.106
mt-Cytb, Astrocytes
  Change: Up
  Mean-Ket: 2.746
  logFC: 0.093
mt-Nd2, Astrocytes
  Change: Up
  Mean-Ket: 1.340
  logFC: 0.132
mt-Nd4, Astrocytes
  Change: Up
  Mean-Ket: 2.165
  logFC: 0.125
oligodendrocytes
  genes differentially expressed exclusively in one cell type: 16
Vascular cells
  genes differentially expressed exclusively in one cell type: 1
